From patent US20260007634A1, “PHARMACEUTICAL COMPOSITIONS FOR THE TREATMENT OF ALLERGIC DISEASES” (KINKI UNIVERSITY, priority 2022, published 2026)

Experiments:
IgE antibody = experiment: Serum IgE antibody ELISA, food allergy mice; assay type: in vivo, mouse; conditions: OVA food allergy; serum day 28; oral 10 mg/kg (dexamethasone 2 mg/kg); control 56, vehicle 124
Protocol: A 0.2 mL dose of 10 μg ovalbumin (OVA) and 1 mg Alum mixture was administered to 6-week-old female Balb/c mice (Japan SLC Inc.) (day 0 of the example). Alum was used as an adjuvant. Seven days later, the Balb/c mice were immunized again with a 0.2 mL injection of the above mixture. Starting on day 14, mice were orally treated with 10 mg/kg of norathyriol, 10 mg/kg of mangiferin 8a, 10 mg/kg of tofacitinib (JAK inhibitor), 2 mg/kg of dexamethasone (steroid) and 10 mg/kg of olopatadine (antihistamine) daily for 14 consecutive days. […]
Serum was collected from day 28 mice in Examples 21, and IgE antibody production was measured by enzyme-linked immunosorbent assay (ELISA). This assay was performed using a mouse IgE antibody ELISA kit (R&D).

IL-4 [1] = experiment: Serum IL-4 ELISA, cedar pollinosis mice; assay type: in vivo, mouse; conditions: serum day 28, oral 10 mg/kg (dexamethasone 2 mg/kg), control 55, vehicle 374
Protocol: A 0.2 mL dose of 100 μg cedar pollen and 1 mg Alum mixture was administered to 6-week-old female Balb/c mice (Japan SLC Inc.) (day 0 of the example). Alum was used as an adjuvant. Seven days later and 14 days later, the Balb/c mice were immunized again with 0.2 mL injections of the above mixture. Starting on day 20, mice were orally treated with 10 mg/kg of norathyriol, 10 mg/kg of mangiferin 8a, 10 mg/kg of tofacitinib (JAK inhibitor), 2 mg/kg of dexamethasone (steroid) and 10 mg/kg of olopatadine (antihistamine) daily for 8 consecutive days. Starting on day 21, 500 μg cedar pollen was administered intranasally, and nose-scratching behavior was measured on day 27. […]
Serum was collected from day 28 mice in Examples 28 and 29, and IL-4 production was measured by enzyme-linked immunosorbent assay (ELISA). This assay was performed using a mouse IL-4 ELISA kit (R&D).

IL-4 [2] = experiment: Serum IL-4 ELISA, bronchial asthma mice; assay type: in vivo, mouse; conditions: OVA bronchial asthma; serum day 28; oral 10 mg/kg (dexamethasone 2 mg/kg); control 282, vehicle 863
Protocol: (§1) A 0.2 mL dose of 50 μg ovalbumin (OVA) and 2 mg Alum mixture was administered to 6-week-old female Balb/c mice (Japan SLC Inc.) (day 0 of the example). Alum was used as an adjuvant. Seven days later and 14 days later, the Balb/c mice were immunized again with 0.2 mL injections of the above mixture. Starting on day 20, mice were orally treated with 10 mg/kg of norathyriol, 10 mg/kg of mangiferin 8a, 10 mg/kg of tofacitinib (JAK inhibitor), 2 mg/kg of dexamethasone (steroid) and 10 mg/kg of olopatadine (antihistamine) daily for 8 consecutive days. Starting on day 21, 400 μg OVA was administered intranasally, and cough was measured on day 27. Note that tofacitinib, dexamethasone, and olopatadine are currently in clinical use in allergic rhinitis and were used as control drugs in this example.
Serum was collected from day 28 mice in Examples 14, and IL-4 production was measured by enzyme-linked immunosorbent assay (ELISA). This assay was performed using a mouse IL-4 ELISA kit (R&D).

IL-5 = experiment: Serum IL-5 ELISA, bronchial asthma mice; assay type: in vivo, mouse; conditions: OVA bronchial asthma; serum day 28; oral 10 mg/kg (dexamethasone 2 mg/kg); control 80, vehicle 992
Protocol: as §1
Serum was collected from day 28 mice in Examples 14, and IL-5 production was measured by enzyme-linked immunosorbent assay (ELISA). This assay was performed using a mouse IL-5 ELISA kit (R&D).

IL-6 = experiment: BAFF-induced IL-6 secretion in B cells (ELISA); assay type: cell-based, mouse; conditions: DBA/1J spleen B cells; 10 μM compound, 100 ng/mL BAFF, 7 days; control 26.06, BAFF only 454.47
Protocol: Spleens were harvested from 6-week-old male DBA/1J mice and B cells were isolated. After isolation, the cells were cultured in RPMI 1640 medium for 1 day. Then, 10 μM mangiferin 8a and 10 μM norathyriol were added to B cells, and 100 ng/mL of BAFF was added to each 3 h later, and the cells were cultured for 7 days. After 7 days of culture, the culture supernatant was collected and IL-6 secretion was measured by enzyme-linked immunosorbent assay (ELISA). This assay was performed using a mouse IL-6 ELISA kit (R&D).

[3] = system: Balb/c mice with ovalbumin-induced allergic rhinitis; experiment: Nose scratching behavior, ovalbumin-induced allergic rhinitis mice; assay type: in vivo, mouse; conditions: OVA allergic rhinitis; oral daily 8 days from day 20, 10 mg/kg (dexamethasone 2 mg/kg); measured day 27; vs vehicle group
Protocol: as §1, with “nose-scratching behavior” for “cough”
The group that was just immunized with OVA is called the subject group, the one that received norathyriol is called the norathyriol group, the one that received mangiferin 8a is called the mangiferin 8a group, the one that received tofacitinib is called the tofacitinib group, the one that received dexamethasone is called the dexamethasone group, and the one that received olopatadine is called the olopatadine group. Each group consisted of five animals.

Th2 cells = experiment: Th2 cell activation in inflammation-induced mouse model (IL-4 flow cytometry); assay type: in vivo; conditions: DBA/1J mice, Freund's complete adjuvant + bovine type2 collagen; oral 10 mg/kg daily 20 days; thymus cells; vs vehicle group
Protocol: Equal volume mixtures of Freund's complete adjuvant and Bovine type2 collagen were administered to 6-week-old male DBA/1J mice (Japan SLC Inc.) at 0.1 mL (day 0 of the study). 21 days later, DBA/1J mice were again injected with 0.1 mL of the above mixture for secondary immunization. After the second immunization, mice were orally treated with 10 mg/kg of mangiferin 8a and 10 mg/kg of norathyriol daily for 20 days. 20 days later, thymus glands were harvested from mice and stained with anti-CD4 and anti-IL-4 antibodies, which are Th2 cell markers, and expression of IL-4 (CD4 positive) was measured using BD LSRFortessa.

| SMILES | amount of IgE antibody (IgE antibody) | amount of IL-4 (IL-4 [1]) | amount of IL-4 (IL-4 [2]) | amount of IL-5 (IL-5) | IL-6 secretion (IL-6) | number of nose scratches [3] | IL-4 expression (CD4 positive) (Th2 cells) |
| --- | --- | --- | --- | --- | --- | --- | --- |
| C[C@@H]1C[C@H]2[C@@H]3CCC4=CC(=O)C=C[C@]4(C)[C@@]3(F)[C@@H](O)C[C@]2(C)[C@@]1(O)C(=O)CO [dexamethasone] | 36 ng/mL | 78 pg/mL | 359 pg/mL | 286 pg/mL |  |  |  |
| O=c1c2cc(O)c(O)cc2oc2cc(O)cc(O)c12 [norathyriol, 1,3,6,7-tetrahydroxyxanthone] | 84 ng/mL | 111 pg/mL | 545 pg/mL | 601 pg/mL | 61.39 pg/mL | significantly decreased the number of nose scratches | markedly reduced |
| CN(C)CC/C=C1/c2ccccc2COc2ccc(CC(=O)O)cc21 [olopatadine] | 111 ng/mL | 263 pg/mL | 781 pg/mL | 866 pg/mL |  | significantly decreased the number of nose scratches |  |
| C[C@@H]1CCN(C(=O)CC#N)C[C@@H]1N(C)c1ncnc2[nH]ccc12 [tofacitinib] | 106 ng/mL | 213 pg/mL | 831 pg/mL | 833 pg/mL |  | significantly decreased the number of nose scratches |  |
